The source of these data is article PMC5339874, “Fluorene-9-bisphenol is anti-oestrogenic and may cause adverse pregnancy outcomes in mice” (Nature Communications, 2017).

Molecules are shown by their SMILES. pIC50: −log10 of the molar value. Where two headings read alike, the source gives them in different places.

Data set [1] has as its system human choriocarcinoma JEG-3 cells. As to the kind of experiment: WST-1 cell proliferation assay (cytotoxicity). In kind it is cell-based. The note with it: from 1.0 × 10^−6 M to lower concentrations; 24 h. As to the method: Dual-luciferase reporter assays were carried out primarily according to the method described in a previous study. In short, full-length sequences of human oestrogen receptor α and β were amplified by RT-PCR using mRNA from MCF-7 (Supplementary Table 3), and inserted into a pSVSPORT1 (Invitrogen); the resulting constructs were termed pSVhERα and pSVhERβ. A reporter plasmid containing ERE was constructed by inserting four tandem repeats of an ERE of Xenopus laevis vitellogenin A2 into a pGL4.23 vector (Promega), and was termed pGL4-ERE-luc. All of the plasmids constructed were confirmed by sequence analysis. […] The assays were performed in quadruplicate, and the results were expressed as the fold induction of the control after normalization against Renilla luciferase activity. Sigmoidal dose-effect curves were calculated using the GraphPad Prism 4 software. The IC50 values were calculated on the basis of the sigmoidal dose-effect curves. […] After another 24 h, 20 μl of 5 mM WST-1 with 0.2 mM 1-Methoxy-5-methylphenazinium methylsulfate was added for 4 h before the absorbance at 490 nm was measured with a microplate reader (iMark, BioRad). […]
Cell viability was determined using the cell proliferation reagent WST-1 (DOJINDO, Mashiki, Japan). […]
1-Methoxy-5-methylphenazinium methylsulfate was added for four hours before the absorbance at 490 nm was measured with a microplate reader (iMark, BioRad). […]

The target of data set [2] is T1, human oestrogen receptor β (Homo sapiens, UniProt Q92731).
T1 construct: expressed in transfected cells; host or cells: JEG-3 human choriocarcinoma cells
T1 sequence (Q92731 whole entry): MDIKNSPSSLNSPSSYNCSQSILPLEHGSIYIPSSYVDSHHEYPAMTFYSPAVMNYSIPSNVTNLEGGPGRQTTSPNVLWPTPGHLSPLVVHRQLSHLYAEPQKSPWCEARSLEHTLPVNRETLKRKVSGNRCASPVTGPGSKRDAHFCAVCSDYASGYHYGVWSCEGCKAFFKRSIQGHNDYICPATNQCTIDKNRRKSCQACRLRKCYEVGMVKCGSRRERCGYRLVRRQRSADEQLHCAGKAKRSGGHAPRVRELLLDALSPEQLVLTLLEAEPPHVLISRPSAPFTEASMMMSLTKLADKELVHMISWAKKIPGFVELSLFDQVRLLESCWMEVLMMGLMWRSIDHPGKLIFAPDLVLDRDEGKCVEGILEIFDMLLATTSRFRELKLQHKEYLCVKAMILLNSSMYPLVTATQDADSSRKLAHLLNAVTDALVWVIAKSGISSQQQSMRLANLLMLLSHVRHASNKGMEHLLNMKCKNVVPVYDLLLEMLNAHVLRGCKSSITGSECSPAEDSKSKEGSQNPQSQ
As to the kind of experiment: Dual-luciferase reporter assay, full-length ERβ and ERE in JEG-3 cells. In kind it is cell-based. As to the method: Dual-luciferase reporter assays were carried out primarily according to the method described in a previous study. In short, full-length sequences of human oestrogen receptor α and β were amplified by RT-PCR using mRNA from MCF-7 (Supplementary Table 3), and inserted into a pSVSPORT1 (Invitrogen); the resulting constructs were termed pSVhERα and pSVhERβ. A reporter plasmid containing ERE was constructed by inserting four tandem repeats of an ERE of Xenopus laevis vitellogenin A2 into a pGL4.23 vector (Promega), and was termed pGL4-ERE-luc. […] The Renilla LUC control reporter construct pGL4.74-TK was purchased from Promega (Madison, WI). Human choriocarcinoma JEG-3 cells (ATCC No. HTB-36) were obtained from the American Type Culture Collection (ATCC; Manassas, VA) and were cultured in minimal essential medium (MEM, Invitrogen, Carlsbad, CA) containing 2 mM L-glutamine, 0.1 mM minimal essential medium nonessential amino acid solution (Invitrogen/Thermo Fisher Scientific, Grand Island, NY), and 10% fetal calf serum (FCS) at 37 °C in a humidified atmosphere containing 5% CO2. The cells (3 × 10^4 cells per well) were seeded in 24-well plates 24 h before transfection. The cells were transfected with pGL4-ERE-luc (5 ng per well), pGL 4.74-TK (0.2 ng per well) and either pSVhERα (5 ng per well) or pSVhERβ (5 ng per well) using Lipofectamine reagent (Invitrogen). At 24 h after transfection, the compounds in DMSO were added to the cultures at a volume ratio (v/v) of 0.1%. The cells were continuously cultured in medium supplemented with 1% charcoal-stripped FCS for another 24 h and then harvested, and cell extracts were assayed for firefly luciferase activity. The assays were performed in quadruplicate, and the results were expressed as the fold induction of the control after normalization against Renilla luciferase activity. Sigmoidal dose-effect curves were calculated using the GraphPad Prism 4 software. The IC50 values were calculated on the basis of the sigmoidal dose-effect curves. […]
On the technique in general: Reporter assays use an easily measured gene product as a stand-in for the process of interest.

Usually pIC50 stands for the IC50 on a negative log10 scale, so that one unit is a factor of ten. In the case of `Oc1ccc(C2(c3ccc(O)cc3)c3ccccc3-c3ccccc32)cc1` [BHPF, 9,9-bis(4-hydroxyphenyl)-fluorene], the cytotoxicity result in data set [1] is “no obvious cytotoxicity”. Moreover, the negative logarithm of the IC50 (pIC50) in data set [2] (coexisted with 1 × 10^−9 M E2, read-out: IC50, anti-oestrogenic activity) is 7.12. Further, the oestrogenic activity entry in data set [2] (compound alone) is “no oestrogenic activity”. Also, the IC50 in data set [2] (vs 1 nM E2, read-out: IC50 converted to mass concentration (converted)) is 75.3 nM.
